According to patent publication US4959378A, “Aminopyridinylaminophenol compounds useful as topical antiinflammatory agents for the treatment of skin disorders” (Hoechst-Roussel Pharmaceuticals Inc., priority 1989, dated 1990):

Key:
[1] = system: naja naja (snake venom) phospholipase A2 -induced paw edema; experiment: Phospholipase A2-induced Paw Edema (PIPE); type: in vivo, rat; settings: for PIPE (0.1 M), difference in edema vs. control: 0.1M test compound injected with PLA2 (3 units/paw) subplantar, rat left hindpaw, two hours post administration
Experimental: Phospholipase A2 -induced Paw Edema (PIPE)
The ability of compounds to prevent naja naja (snake venom) phospholipase A2 -induced paw edema in male Wistar rates (100-125 g) was measured. PLA2 (3 units/paw) alone or with 0.1M of the test compound was injected in the subplantar region of the rat left hindpaw. Immediately subsequent to the injection and at two hours post administration the paw was immersed in a mercury bath, and paw displacement was measured on a recorder via a transducer. […] See Giessler, A. J. et al., Agents and Actions, Vol. 10, Trends in Inflammation Research (1981), p. 195.

[2] = target: T1, porcine pancreatic PLA2 (Sus scrofa, UniProt P00592); experiment: In Vitro Phospholipase A2 Assay (PLA2); type: biochemical; settings: 0.01 M test compound; porcine pancreatic PLA2 3.2 units, pH 8.0, 37° C.; read-out: PLA2 (0.01 M), difference vs. control
T1 construct: from tissue; host or cells: porcine pancreas
Experimental: In Vitro Phospholipase A2 Assay (PLA2)
The ability of a compound to modulate PLA2 activity (cleavage of ^14 C-dipalmitoyl phosphotidylcholine at the 2-position to ^14 C-palmitic acid) was quantitated in this assay. The reaction mixture contained Tris buffer (25 mM), pH 8.0, calcium chloride (2.0 mM), bovine serum albumin (0.5 mg), dipalmitoyl phosphotidylcholine (8×10^-5M), (^14 C-palmitoyl)dipalmitoyl phosphotidylcholine (6×10^3cpm), porcine pancreatic PLA2 (3.2 units) and the test compound. The reaction was run at 37° C. in a shaking incubator. The reaction was quenched and an internal standard was added in order to determine sample recovery. The samples were loaded onto C18 columns, eluted with ethanol, and the radioactivity was then measured. […] See Feyen, J. H. M., et al., Journal of Chromatography 259 (1983), pp. 338-340.

T1 sequence (P00592 23-146): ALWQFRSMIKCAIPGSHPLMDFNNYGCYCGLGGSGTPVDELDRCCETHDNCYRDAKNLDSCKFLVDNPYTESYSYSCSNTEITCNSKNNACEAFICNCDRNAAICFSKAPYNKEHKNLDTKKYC

Compound | PIPE (0.1 M), difference in edema vs. control [1] [%] | inhibition at 10000 µM [2] [%] | ED50 (PIPE standard) ([1]; standard, subplantar injection with PLA2, male Wistar rats) [M]
Nc1ccncc1Nc1cccc(O)c1 [3-[(4-Amino-3-pyridinyl)amino]phenol] | -52 | 35 | 
Nc1ccncc1Nc1ccc(O)cc1.O=C(O)/C=C\C(=O)O [4-[(4-Amino-3-pyridinyl)amino]phenol maleate] | -62 | 35 | 
C[C@]12CCC(=O)C=C1CC[C@@H]1[C@@H]2[C@@H](O)C[C@@]2(C)[C@H]1CC[C@]2(O)C(=O)CO [hydrocortisone, reference compound] |  |  | 0.46
